Results as given in US20150224211A1, “LEUKOCYTES AS DELIVERY CELLS FOR IMAGING AND DISEASE THERAPY” (priority 2012, published 2015).
Entries after “also recorded” stand apart in the source; their conditions may differ.

Columns and labels:
[1] = tested on: Fusobacterium necrophorum subsp. necrophorum strain 8L1; experiment: Efficacy study in mouse model of liver abscesses; type: in vivo, BALB/c mice; conditions: 60 μg CHX in 1.3×10^6 neutrophils
Protocol: In an efficacy study that followed, Fusobacterium necrophorum subsp. necrophorum strain 8L1 was grown overnight from a single colony in PRAS-BHI. 0.3 ml of the starter culture was added to 10 ml of fresh PRAS-BHI broth and grown to an O.D.600 of 0.7. 1 ml of this culture was diluted 1:40 to achieve a final concentration of approximately 4·10^6 CFU/ml. 400 μl of the diluted bacteria was injected intraperitonially into 10 week old BALB/c mice.
Ten-week old BALB/c mice were randomly assigned into 6 groups with 9 mice per group. On day zero, all mice were infected intraperitonially with an infectious dose (approximately 1×10^7 CFU) of F. necrophorum. On day 3, mice were injected (via tail vein) with 100 μl PBS (control), unmodified neutrophils, neutrophils carrying microparticles (an average of 20 cells of M. luteus loaded with chlorhexidine), or neutrophils containing unmodified, heat deactivated M. luteus. The animals were monitored for clinical signs for 5 days after treatment and were euthanized if any clinical signs developed. The mice were euthanized 5 days post treatment and all mice were examined post mortem for abscesses in the livers. Livers of the mice were weighed and homogenized in a tissue homogenizer for 1 min in modified lactate (ML) broth. […]

[2] = tested on: 4T1 mouse mammary carcinoma cells; experiment: In situ photodynamic therapy (ALA plus luminol) of mouse mammary tumors; type: in vivo; conditions: ALA 100 mg/kg IP prior to luminol 250 mg/kg IP; treatment repeated; four days after PDT
Protocol: 1×10^5 4T1 mouse mammary carcinoma cells (ATCC) were transplanted into a mammary fat pad of a mouse. Four, six, eight and ten days after transplant, luminol (Sigma-Aldrich) was administered intrapertioneally (IP)(250 mg/kg) and the mouse was imaged on an IVIS Lumina imaging apparatus. For in situ photodynamic therapy, the sensitizer alpha aminolevulinic acid (ALA), which is a precursor to protoporphyrin IX (a clinically used photosensitizer), was administered IP (100 mg/kg,) prior to luminol administration. […] Adjunct treatments designed to enhance the PDT effect included the administration of the TGF-β inhibitor LY34947 (1 mg/kg, IP), streptokinase (800 units/mouse, IV), or a combination of LY34947 and streptokinase.

SMILES	effect against the hepatic disease caused by F. necrophorum [1]	tumor response determined by imaging with luciferin [2]
[H]/N=C(\N/C(=N/[H])NCCCCCCNC(=N)NC(=N)Nc1ccc(Cl)cc1)Nc1ccc(Cl)cc1 [CHX, chlorhexidine gluconate]	effective	–
NCC(=O)CCC(=O)O [ALA, 5-aminolevulinic acid]	–	can attenuate tumors; also recorded: dramatic regression of the tumors
